Molecular target: T1, LPA/S1P GPCR of interest (Homo sapiens, UniProt Q92633)
T1 construct: host or cells: CHO
Experiment: Beta-Arrestin based assay (PathHunter)
Type: cell-based
Protocol: CMV promoter based DNA constructs expressing a fusion of the LPA/S1P GPCR of interest and ProLink™ tag were used to transfect EA Parental™ CHO cells (DiscoverX, Fremont, Calif.) using a FuGENE® transfection kit (Roche). Beta-Arrestin based assays were conducted 24-48 hrs post transfection using PathHunter® assay kits (DiscoverX, Fremont, Calif.). Agonist and antagonist assays were performed in quadruplicate in white 384 well plates. End point luminescence data were plotted and fit to a 4 parameter logistic function to obtain IC50 values. For antagonist assays, an IC80 concentration of agonist (LPA) equal to 0.5 micromolar was used.

T1 sequence (Q92633 whole entry): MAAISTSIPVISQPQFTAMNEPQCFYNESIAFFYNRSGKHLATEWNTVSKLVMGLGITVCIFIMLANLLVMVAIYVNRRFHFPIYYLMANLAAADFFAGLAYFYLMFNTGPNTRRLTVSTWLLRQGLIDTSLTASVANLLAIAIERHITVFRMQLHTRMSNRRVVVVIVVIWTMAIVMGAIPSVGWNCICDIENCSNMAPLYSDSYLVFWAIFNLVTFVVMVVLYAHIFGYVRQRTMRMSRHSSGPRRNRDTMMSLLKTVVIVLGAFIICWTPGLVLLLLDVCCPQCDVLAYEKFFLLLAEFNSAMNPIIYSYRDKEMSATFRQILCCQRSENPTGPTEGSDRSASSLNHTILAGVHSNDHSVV

Cc1cc(C2(C(=O)O)CC2)c(F)cc1-c1cc2sc(-c3snc(C)c3NC(=O)O[C@H](C)c3ccccc3)cc2s1 [IT343] was tested, and the EC50 was < 50 nM.
Cc1cc(-c2cc3sc(-c4snc(C)c4NC(=O)O[C@H](C)c4ccccc4)cc3s2)c(F)cc1C1(C(=O)O)CC1 [IT338] was tested, and the EC50 was 50 to 500 nM.
With Cc1cc(C2(C(=O)O)CC2)c(F)cc1-c1cc2sc(-c3cnn(C)c3NC(=O)O[C@H](C)c3ccccc3)cc2s1 [IT342] the EC50 was < 50 nM.
Work on C[C@@H](OC(=O)Nc1c(-c2cc3sc(-c4ccc(C5(C(=O)O)CC5)c(C(F)(F)F)c4)cc3s2)cnn1C)c1ccccc1 [IT379] yielded an EC50 of 50 to 500 nM.
With C[C@@H](OC(=O)Nc1c(-c2cc3sc(-c4ccc5occ(CC(=O)O)c5c4)cc3s2)cnn1C)c1ccccc1 [IT332] the EC50 was 50 to 500 nM.
For COc1cc(CC(=O)O)c(F)cc1-c1cc2sc(-c3snc(C)c3NC(=O)O[C@H](C)c3ccccc3)cc2s1 [IT382], the EC50 was > 500 nM.
With Cc1nsc(-c2cc3sc(-c4ccc(C5(C(=O)O)CC5)c5ccccc45)cc3s2)c1NC(=O)O[C@H](C)c1ccccc1 [IT322] the EC50 was > 500 nM.
In the case of C[C@@H](OC(=O)Nc1c(-c2cc3sc(-c4ccc(CC(=O)O)c5ccccc45)cc3s2)cnn1C)c1ccccc1 [IT319], the EC50 is reported as > 500 nM.
In the case of Cc1nsc(-c2ccc(-c3ccc(C(=O)O)s3)cc2)c1NC(=O)O[C@H](C)c1ccccc1 [IT144], the EC50 is reported as > 500 nM.
For Cc1nsc(-c2cc3sc(-c4ccc(C5(C(=O)O)CC5)c(F)c4F)cc3s2)c1NC(=O)O[C@H](C)c1ccccc1 [IT366], the EC50 was < 50 nM.
With COc1cc(C2(C(=O)O)CC2)c(OC)cc1-c1cc2sc(-c3nnn(C)c3NC(=O)O[C@H](C)c3ccccc3)cc2s1 [IT415] the EC50 was > 500 nM.
With Cc1nsc(-c2cc3sc(-c4ccc(CC(=O)O)c(F)c4)cc3s2)c1NC(=O)O[C@H](C)c1ccccc1 [IT294] the EC50 was 50 to 500 nM.
In the case of Cc1nsc(-c2cc3sc(-c4ccc5c(CC(=O)O)coc5c4)cc3s2)c1NC(=O)O[C@H](C)c1ccccc1 [IT290], the EC50 is reported as > 500 nM.
With Cc1cc(-c2cc3sc(-c4cnn(C)c4NC(=O)O[C@H](C)c4ccccc4)cc3s2)ccc1C1(C(=O)O)CC1 [IT323] the EC50 was 50 to 500 nM.
In the case of C[C@@H](OC(=O)Nc1c(-c2cc3sc(-c4ccc(-c5nnc(C6(C(=O)O)CC6)s5)cc4)cc3s2)cnn1C)c1ccccc1 [IT287], the EC50 is reported as > 500 nM.
Cc1noc(-c2ccc(-c3ccc(Oc4c(C(=O)O)ncn4C)cc3)cc2)c1NC(=O)O[C@H](C)c1ccccc1 [IT444] was tested, and the EC50 was < 50 nM.
In the case of Cc1nsc(-c2ccc(-c3ncc(C(=O)O)s3)cc2)c1NC(=O)O[C@H](C)c1ccccc1 [IT177], the EC50 is reported as > 500 nM.
Cc1nsc(-c2cc3sc(C4CCC(C(=O)O)C4)cc3s2)c1NC(=O)O[C@H](C)c1ccccc1 (stereo partly drawn) [IT276] was tested, and the EC50 was > 500 nM.
Work on C[C@@H](OC(=O)Nc1c(-c2cc3sc(-c4ccc(C5(C(=O)O)CC5)cc4C(F)(F)F)cc3s2)nnn1C)c1ccccc1 [IT299] yielded an EC50 of 50 to 500 nM.
Work on C[C@@H](OC(=O)Nc1c(-c2cc3sc(-c4ccc(C5(C(=O)O)CC5)c(C(F)(F)F)c4)cc3s2)nnn1C)c1ccccc1 [IT380] yielded an EC50 of 50 to 500 nM.
C[C@@H](OC(=O)Nc1c(-c2cc3sc(-c4ccc(C5(C(=O)O)CC5)c(S(C)(=O)=O)c4)cc3s2)nnn1C)c1ccccc1 [IT442] was tested, and the EC50 was > 500 nM.
Compound Cc1noc(-c2ccc(-c3ccc(Oc4ccc(C(=O)O)o4)cc3)cc2)c1NC(=O)O[C@H](C)c1ccccc1 [IT388] has an EC50 of 50 to 500 nM.
Cc1nsc(-c2cc3sc(-c4ccc5occ(CC(=O)O)c5c4)cc3s2)c1NC(=O)O[C@H](C)c1ccccc1 [IT333] was tested, and the EC50 was 50 to 500 nM.
With Cc1nsc(-c2cc3sc(-c4ccc(-c5nnc(C6(C(=O)O)CC6)s5)cc4)cc3s2)c1NC(=O)O[C@H](C)c1ccccc1 [IT289] the EC50 was > 500 nM.
In the case of COc1cc(C2(C(=O)O)CC2)c(F)cc1-c1cc2sc(-c3snc(C)c3NC(=O)O[C@H](C)c3ccccc3)cc2s1 [IT412], the EC50 is reported as > 500 nM.
C[C@@H](OC(=O)NC1=C(c2ccc(-c3cc(F)c(OC(C)(C)C(=O)O)c(F)c3)cc2)OC2C=CC=CC12)c1ccccc1 (stereo partly drawn) [IT501] was tested, and the EC50 was 50 to 500 nM.
Work on C[C@@H](OC(=O)Nc1c(-c2cc3sc(-c4ccc(C5(C(=O)O)CC5)cc4C(F)(F)F)cc3s2)cnn1C)c1ccccc1 [IT247] yielded an EC50 of 50 to 500 nM.
Compound COc1cc(-c2cc3sc(-c4nnn(C)c4NC(=O)O[C@H](C)c4ccccc4)cc3s2)ccc1CC(=O)O [IT220] has an EC50 of 50 to 500 nM.
With Cc1nsc(-c2ccc(-c3nnc(C4(C(=O)O)CC4)s3)cc2)c1NC(=O)O[C@H](C)c1ccccc1 [IT200] the EC50 was > 500 nM.
Compound C[C@@H](OC(=O)Nc1c(-c2cc3sc(-c4ccc(CC(=O)O)c(F)c4)cc3s2)nnn1C)c1ccccc1 [IT293] has an EC50 of 50 to 500 nM.
Work on C[C@@H](OC(=O)Nc1c(-c2cc3sc(-c4ccc(C5(C(=O)O)CC5)cc4OC(F)(F)F)cc3s2)nnn1C)c1ccccc1 [IT386] yielded an EC50 of 50 to 500 nM.
In the case of C[C@@H](OC(=O)Nc1c(-c2ccc(-c3cc(F)c(Oc4cc(F)ccc4C(=O)O)c(F)c3)cc2)nnn1C)c1ccccc1 [IT514], the EC50 is reported as < 50 nM.
With Cc1nsc(-c2cc3sc(-c4ccc(C5(C(=O)O)CC5)cn4)cc3s2)c1NC(=O)O[C@H](C)c1ccccc1 [IT426] the EC50 was 50 to 500 nM.
With Cc1nsc(-c2cc3sc(-c4ccc(C5(C(=O)O)CC5)cc4Cl)cc3s2)c1NC(=O)O[C@H](C)c1ccccc1 [IT391] the EC50 was 50 to 500 nM.
In the case of C[C@@H](OC(=O)Nc1nn(C)cc1-c1ccc(-c2cc(F)c(Oc3ncccc3C(=O)O)c(F)c2)cc1)c1ccccc1 [IT472], the EC50 is reported as > 500 nM.
In the case of C[C@@H](OC(=O)Nc1c(-c2cc3sc(-c4ccc5c(CC(=O)O)coc5c4)cc3s2)nnn1C)c1ccccc1 [IT369], the EC50 is reported as 50 to 500 nM.
Compound Cc1noc(-c2ccc(-c3ccc(Oc4ccc(C(=O)O)s4)cc3)cc2)c1NC(=O)O[C@H](C)c1ccccc1 [IT409] has an EC50 of 50 to 500 nM.
With COc1cc(-c2cc3sc(-c4nnn(C)c4NC(=O)O[C@H](C)c4ccccc4)cc3s2)c(OC)cc1CC(=O)O [IT350] the EC50 was > 500 nM.
For C[C@@H](OC(=O)Nc1c(-c2ccc(C#CC(=O)NCCC(=O)O)cc2)cnn1C)c1ccccc1 [IT432], the EC50 was > 500 nM.
Cc1nsc(-c2cc3sc(-c4ccc(CC(=O)O)cc4OC(F)(F)F)cc3s2)c1NC(=O)O[C@H](C)c1ccccc1 [IT384] was tested, and the EC50 was > 500 nM.
In the case of Cn1ncc(C#Cc2cc3sc(C4(C(=O)O)CC4)cc3s2)c1N [IT113], the EC50 is reported as > 500 nM.
With C[C@@H](OC(=O)Nc1c(-c2cc3sc(-c4ccc5c(C6(C(=O)O)CC6)coc5c4)cc3s2)cnn1C)c1ccccc1 [IT395] the EC50 was > 500 nM.
For Cc1noc(-c2ccc(-c3ccc(OC(C)C(=O)O)cc3)cc2)c1NC(=O)O[C@H](C)c1ccccc1 (single isomer, unassigned) [IT256], the EC50 was < 50 nM.
In the case of C[C@@H](OC(=O)Nc1c(-c2ccc(C#CC(=O)O)cc2)cnn1C)c1ccccc1 [IT371], the EC50 is reported as > 500 nM.
With C[C@@H](OC(=O)Nc1c(-c2cc3sc(-c4ccc5scc(C6(C(=O)O)CC6)c5c4)cc3s2)nnn1C)c1ccccc1 [IT372] the EC50 was > 500 nM.
For Cc1cc(-c2cc3sc(-c4nnn(C)c4NC(=O)O[C@H](C)c4ccccc4)cc3s2)c(F)cc1CC(=O)O [IT242], the EC50 was > 500 nM.
With COc1cc(-c2cc3sc(-c4snc(C)c4NC(=O)O[C@H](C)c4ccccc4)cc3s2)cnc1C1(C(=O)O)CC1 [IT359] the EC50 was 50 to 500 nM.
For Cc1nsc(-c2cc3sc(-c4ccc(CC(=O)O)cc4C(F)(F)F)cc3s2)c1NC(=O)O[C@H](C)c1ccccc1 [IT337], the EC50 was > 500 nM.
Cc1cc(-c2cc3sc(-c4cnn(C)c4NC(=O)O[C@H](C)c4ccccc4)cc3s2)ccc1CC(=O)O [IT254] showed an EC50 of 50 to 500 nM.
C[C@@H](OC(=O)Nc1c(-c2cc3sc(-c4ccc(-c5nnc(C6(C(=O)O)CC6)s5)cc4)cc3s2)nnn1C)c1ccccc1 [IT288] showed an EC50 of 50 to 500 nM.
With C[C@@H](OC(=O)Nc1c(-c2cc3sc(-c4ccc5[nH]c(C6(C(=O)O)CC6)nc5c4)cc3s2)nnn1C)c1ccccc1 [IT422] the EC50 was > 500 nM.
For COc1cc(C2(C(=O)O)CC2)c(F)cc1-c1cc2sc(-c3cnn(C)c3NC(=O)O[C@H](C)c3ccccc3)cc2s1 [IT411], the EC50 was 50 to 500 nM.
C[C@@H](OC(=O)Nc1c(-c2cc3sc(-c4ccc(CC(=O)O)nc4)cc3s2)cnn1C)c1ccccc1 [IT214] gave an EC50 of 50 to 500 nM.
C[C@@H](OC(=O)Nc1c(-c2cc3sc(-c4ccc5c(C6(C(=O)O)CC6)coc5c4)cc3s2)nnn1C)c1ccccc1 [IT396] showed an EC50 of 50 to 500 nM.
In the case of C[C@@H](OC(=O)Nc1c(-c2cc3sc(-c4ccc5occ(CC(=O)O)c5c4)cc3s2)nnn1C)c1ccccc1 [IT268], the EC50 is reported as 50 to 500 nM.
In the case of COc1cc(-c2cc3sc(-c4snc(C)c4NC(=O)O[C@H](C)c4ccccc4)cc3s2)c(OC)cc1CC(=O)O [IT351], the EC50 is reported as > 500 nM.
In the case of C[C@@H](OC(=O)Nc1c(-c2cc(F)c(-c3cc(F)c(Oc4ncccc4C(=O)O)c(F)c3)cc2F)cnn1C)c1ccccc1 [IT473], the EC50 is reported as < 50 nM.
With C[C@@H](OC(=O)Nc1c(-c2ccc(-c3nnc(C4(C(=O)O)CC4)s3)cc2)nnn1C)c1ccccc1 [IT208] the EC50 was > 500 nM.
For Cc1nsc(-c2cc3sc(-c4ccc(C5(C(=O)O)CC5)c(C(F)(F)F)c4)cc3s2)c1NC(=O)O[C@H](C)c1ccccc1 [IT381], the EC50 was 50 to 500 nM.
For Cc1nsc(-c2cc3sc(-c4cc(Cl)c(CC(=O)O)cc4F)cc3s2)c1NC(=O)O[C@H](C)c1ccccc1 [IT205], the EC50 was > 500 nM.
For Cc1cc(CC(=O)O)c(F)cc1-c1cc2sc(-c3snc(C)c3NC(=O)O[C@H](C)c3ccccc3)cc2s1 [IT252], the EC50 was > 500 nM.
With Cc1nsc(-c2cc3sc(-c4cc(F)c(C5(C(=O)O)CC5)cc4F)cc3s2)c1NC(=O)O[C@H](C)c1ccccc1 [IT346] the EC50 was < 50 nM.
With Cc1nsc(-c2cc3sc(-c4ccc(-c5nnc(C6(C(=O)O)CC6)o5)cc4)cc3s2)c1NC(=O)O[C@H](C)c1ccccc1 [IT216] the EC50 was > 500 nM.
C[C@@H](OC(=O)Nc1c(-c2cc3sc(-c4ccc(C5(C(=O)O)CC5)s4)cc3s2)nnn1C)c1ccccc1 [IT273] gave an EC50 of 50 to 500 nM.
C[C@@H](OC(=O)Nc1c(-c2cc3sc(-c4cnc(C5(C(=O)O)CC5)c(F)c4)cc3s2)cnn1C)c1ccccc1 [IT392] showed an EC50 of 50 to 500 nM.
With C[C@@H](OC(=O)Nc1c(-c2cc3sc(-c4ccc5[nH]c(C6(C(=O)O)CC6)nc5c4)cc3s2)cnn1C)c1ccccc1 [IT427] the EC50 was > 500 nM.

Source: US20140213538A1, “LYSOPHOSPHATIDIC ACID RECEPTOR ANTAGONISTS” (InterMune, Inc., priority 2013, published 2014)
